In US20120296090A1, “Drug Repositioning Methods For Targeting Breast Tumor Initiating Cells” (The Methodist Hospital Research Institute, priority 2011, published 2012):
“Also recorded” adds a separate entry of the source.

Tests used:
breast TICs = test: inhibition of breast TICs in vitro and in vivo (FIG. 3, human breast cancer xenograft mammosphere formation efficiency); assay type: cell-based
human breast cancer TICs [1] = test: dilute transplantation assay in murine xenograft models; assay type: in vivo
From the text: (§1) Thus, the proposed drug-repositioning platform consists of CSB model, bioinformatics software, and drug information databases. Among the twenty-one drug candidates identified in this study, three drugs, i.e., sunitinib (Sutent®, Pfizer Oncology, New York, N.Y., USA), dasatinib (Sprycel®, Bristol-Myers Squibb, Princeton, N.J., USA) and chloroquine (Aralen®, sanofi-aventis, US, LLC, Bridgewater, N.J., USA) were further analyzed for their in vitro and in vivo effects on human breast cancer TICs, and in murine xenograft models. […] As a result of this finding, dasatinib is now currently in Phase II clinical trials for advanced breast cancer to assess the efficacy of this drug for inhibiting TICs.

SUM159 cells = test: limiting dilution transplantation assay; assay type: in vivo; conditions: SUM159 cells treated overnight, transplanted 200,000 cells/mouse; vehicle control 9 of 12
Protocol: (§2) The bioinformatics systems-based methods described herein also identified a further subset of ten drugs that were subsequently tested in vitro and in vivo for their ability to inhibit breast TICs. These in silico results were first confirmed by in vitro studies that evaluated the effects of these repositioned drugs on mammosphere-forming efficiency. […] Next, limiting dilution transplantation assays were performed, whereupon SUM159 cells were treated with […] overnight and then transplanted the next day 200,000 cells/mouse (single sided).

human breast cancer TICs [2] = test: mammosphere formation efficiency assay on triple-negative cancer cell lines; assay type: cell-based; conditions: at least two triple-negative cancer cell lines
From the text: as §1

BT549 = test: mammosphere-forming efficiency (MSFE) assay; assay type: cell-based, human; conditions: 10 nM and 1 μM, after a single treatment dose
Protocol: as §2

SUM159 = test: mammosphere-forming efficiency (MSFE) assay; assay type: cell-based, human; conditions: 10 nM and 1 μM, after a single treatment dose
Protocol: as §2

MCF7 = conditions: cited from earlier work; for cell growth: considered dosages (<10 μM); for cell death / apoptosis: higher dosages, MCF7
[3] = system: HT-29, human colorectal adenocarcinoma; test: Cell proliferation assay (CellTiter 96 AQueous One Solution); assay type: cell-based; conditions: colorectal cancer cell line HT-29; 48 hours of treatment
Protocol: (§3) Five tumor cell lines were used in these studies: HT-29, human colorectal adenocarcinoma; H69, human small cell lung cancer (SCLC); H226, human non-small cell lung cancer (NSCLC) (squamous carcinoma); LNCaP, human prostate carcinoma; and U87-luc glioblastoma cell line. H69, H226, and LNCaP cells were grown in American Type Culture Collection (ATCC)-formulated RPMI-1640 Medium (ATCC, cat#30-2001; […]) supplemented with 10% fetal bovine serum (FBS) and 1% penicillin/streptomycin (Invitrogen, Carlsbad, Calif., USA). HT-29 cells were cultured in ATCC-formulated McCoy's 5a Medium (Modified) (ATCC, cat#30-2007). […]
(§4) Cell proliferation was analyzed using CellTiter 96 AQueous One Solution Cell Proliferation Assay (Promega, Madison, Wis., USA) according to the manufacturer's instructions. […] After 3-hrs' incubation, absorbance at 490 nm was measured using the FLUOstar™ Omega Microplate Reader (BMG LABTECH, Cary, N.C., USA). Background absorbance (490 nm) was corrected by subtracting the average 490 nm absorbance of the “no cell” control wells from absorbance values obtained for each of the test wells. The proliferative ratio (% surviving cells) in each sample was calculated by dividing the corrected absorbance value of treated cells by that of control cells with no drug treatment. The results were expressed as mean with standard errors from two independent studies.

[4] = system: H226, human non-small cell lung cancer (NSCLC); test: as above; assay type: cell-based
Protocol: as §3, §4

SMILES | cell growth (MCF7) | cell death / apoptosis (MCF7) | other results
CCN(CC)CCCC(C)Nc1ccnc2cc(Cl)ccc12 (stereo not shown) [chloroquine] | – | – | inhibiting breast TICs (breast TICs): effective in inhibiting breast TICs; anti-cancer effects in animal models (dilute transplantation assay) (human breast cancer TICs [1]): anti-cancer effects; tumor initiation rate (xenografts growing within 10 weeks) (SUM159 cells): 1 of 12; anti-TICs effects (mammosphere formation efficiency assay) (human breast cancer TICs [2]): anti-TICs effects; MSFE (mammosphere-forming efficiency) (BT549): dramatic reduction; MSFE (mammosphere-forming efficiency) (SUM159): dramatic reduction
C[C@]12CC[C@@H]3c4ccc(O)cc4C[C@@H](CCCCCCCCC[S+]([O-])CCCC(F)(F)C(F)(F)F)[C@H]3[C@@H]1CC[C@@H]2O (stereo partly shown) [fulvestrant] | significantly inhibited cell growth | does not induce any cell death; also recorded: did not induce the cell death | –
COc1cc2ncnc(Nc3ccc(F)c(Cl)c3)c2cc1OCCCN1CCOCC1 [gefitinib] | – | – | effect on cell proliferation [3]: positive effects; effect on cell proliferation [4]: positive effects
CC(=O)O[C@H]1C(=O)[C@@]2(C)[C@H]([C@H](OC(=O)c3ccccc3)[C@]3(O)C[C@H](OC(=O)[C@H](O)[C@@H](NC(=O)c4ccccc4)c4ccccc4)C(C)=C1C3(C)C)[C@]1(OC(C)=O)CO[C@@H]1C[C@@H]2O [paclitaxel] | significantly inhibited cell growth | induce apoptosis at higher dosages; also recorded: some experiments also cause the cell death | –
O=C(c1ccc(OCCN2CCCCC2)cc1)c1c(-c2ccc(O)cc2)sc2cc(O)ccc12 [raloxifene] | significantly inhibited cell growth | induce apoptosis at higher dosages; also recorded: induced cell death at higher dosages | –
CC/C(=C(\c1ccccc1)c1ccc(OCCN(C)C)cc1)c1ccccc1 [tamoxifen] | significantly inhibited cell growth | induce apoptosis at higher dosages; also recorded: induced cell death at higher dosages | –
